# From ChEMBL document CHEMBL5370626, “Targeting the Subpocket Enables the Discovery of Thiadiazole-Pyridazine Derivatives as Glutaminase C Inhibitors” (ACS Med Chem Lett, 2023)
# Key:
# [1] = Oral bioavailability in Sprague-Dawley rat plasma at 100 mg/kg measured up to 48 hrs by LC-MS/MS analysis; type: ADME, organism-based
# [2] = (§1) Inhibition of human recombinant GAC K320A mutant (73 to 598 residues ) expressed in Escherichia coli BL21 (DE3) cells incubated for 10 mins by fluorometric assay
# Homo sapiens = species: Homo sapiens; test: as §1
# A549 [3] = test: Antiproliferative activity against human A549 cells assessed as reduction in cell viability incubated for 72 hrs by Celltiter-glo assay; type: functional, cell-based; conditions: A549, 72 h
# A549 [4] = test: Inhibition of colony formation in human A549 cells assessed as reduction of colony number measured after 4 days by crystal violet staining-based colony formation assay; type: functional, cell-based; conditions: dose 10-1000 nM, time 4.0 day
# [5] = AUC(0 to t) in Sprague-Dawley rat plasma at 10 mg/kg, iv measured up to 48 hrs by LC-MS/MS analysis; type: ADME, organism-based; set-up: dose 10 mg/kg, time < 48 hrs, route iv
# [6] = MRT(0 to t) in Sprague-Dawley rat plasma at 10 mg/kg, iv measured up to 48 hrs by LC-MS/MS analysis; type: ADME, organism-based
# [7] = Toxicity in Balb/c nude mouse xenografted with human A549 cells assessed as change in body weight at 100 to 150 mg/kg, po administered once daily 24 days; type: organism-based; conditions: in vivo, 576 h, dose 100-150 mg/kg, time 24 day
# [8] = Mutagenicity in Salmonella typhimurium TA1537 measured at 1.5 to 1000 ug per well for 48 to 72 hrs by mini-Ames test; type: toxicity, Salmonella enterica subsp. enterica serovar Typhimurium; conditions: in vivo; dose lower 1.5 µg, time lower 48 hrs, dose upper 1000 µg, time upper 72 hrs
# [9] = Mutagenicity in Salmonella typhimurium TA100 measured at 1.5 to 1000 ug per well for 48 to 72 hrs in presence of S9 liver fraction by mini-Ames test; type: toxicity, subcellular, Salmonella enterica subsp. enterica serovar Typhimurium; conditions: dose lower 1.5 µg, time lower 48 hrs, dose upper 1000 µg, time upper 72 hrs
# [10] = Mutagenicity in Escherichia coli WP2 uvrA measured at 1.5 to 1000 ug per well for 48 to 72 hrs in presence of S9 liver fraction by mini-Ames test; type: toxicity, subcellular; conditions: dose lower 1.5 µg, time lower 48 hrs, dose upper 1000 µg, time upper 72 hrs
compound,measurement,setting,value
O=C(Cc1cccc(Oc2ccccc2)c1)Nc1nnc(N[C@@H]2CCN(c3cccnn3)C2)s1,bioavailability,[1],5%
same,EC50,[2],10.3 nM
same,INH,Homo sapiens,107 nM
same,IC50,A549 [3],4.04 nM
same,inhibition,A549 [4],Dose-Dependent Effect
same,AUC(0-t) at 48 h,[5],4630 ng·h/mL
same,MRT last at 48 h,[6],1.52 h
same,Activity,[7],Non-Toxic
same,Activity,[8],Non-Toxic
same,Activity,[9],Non-Toxic
same,Activity,[10],Non-Toxic
